Values belong to the molecule of their own block, whether it stands above or below them.
Columns and labels:
NaV1.7 [1] = target: T1, NaV1.7 (Homo sapiens, UniProt Q15858); assay: Whole cell patch clamp, external block of NaV1.7 current; format: cell-based; details: % inhibition, compound in external solution, manual whole cell patch clamp, read-out: Nav1.7 Extracellular Inhibition; for inhibition at 3 µM: test concentration 3 μM; for inhibition at 1 µM: test concentration 1 μM; for inhibition at 100 µM: test concentration 100 μM; for inhibition at 10 µM: test concentration 10 μM; for inhibition at 30 µM: test concentration 30 μM
T1 construct: expressed in transfected cells; host or cells: HEK293, tetracycline-inducible
Protocol: (§1) NaV1.7 was expressed upon induction with tetracycline. Cells were cultured in DMEM containing 10% dialyzed Fetal Bovine Serum (VWR, Radnor, Pa.), 1% Glutamax (VWR, Radnor, Pa.), 1% Penicillin-Streptomycin (VWR, Radnor, Pa.), 100 mg/L Hygromycin (Thermo Fisher Scientific, Waltham, Mass. and 5 mg/L Blasticidin (Alfa Aesar, Haverhill, Mass.). Cells were grown and maintained at 37° C. in a humidified environment containing 10% C02 in air. Cells were detached from the culture flask for passage and harvested using 0.05% Trypsin-EDTA (Thermo Fisher Scientific, Waltham, Mass.). To induce NaV1.7, cells were induced with tetracycline (0.1-1 μg/mL, IBI Scientific, Peosta, Iowa) the day before recording and plated onto 24-well plates. Cells were washed with DPBS (VWR, Radnor, Pa.), trypsinized and then triturated five times in 10 mL of growth media to break apart cell aggregates. For one 24-well plate, 2 mL of cell suspension was mixed with 23 mL of fresh growth media and 0.1-1 μg/mL tetracycline added. 1 ml of mixed media with cells was then added to each well of a 24-well plate, with a 12 mm coverslip already placed in the bottom of the well. Cells were then incubated in 37° C. and 10% CO2 overnight.
(§2) The intracellular solution contained the following (in mM) CsCl 135, NaCl 10, EGTA 10, HEPES 10, MgCl2 2, adjusted to pH 7.2 with CsOH. The external solution was a normal Ringer solution containing (in mM) NaCl 155, HEPES 10, glucose 10, KCl 3.5, CaCl2 1.5, MgCl2 1 adjusted to pH 7.4 with NaOH. CsCl is from Alfa Aesar, Haverhill, Mass. All other chemicals are from Sigma-Aldrich, St. Louis, Mo. In order to test the degree of internal block by test compounds the compounds were dissolved in internal solution at the indicated test concentration. […] In order to test the degree of external block by test compounds the compounds were dissolved in external solution at the indicated test concentration.
(§3) 18-24 hours after cells were induced with tetracycline, coverslips were placed into a chamber filled with Normal Ringer solution at room temperature and the chamber placed on a microscope. Pipettes were pulled from borosilicate glass on a P97 puller (Sutter Instrument, Novato, Calif.) and polished with a MF-830 Microforge (Narishige International USA, Inc, Amityville, N.Y.) to have a resistance of 1.5-2.5 MΩ when filled with CsCl internal solution at room temperature. Healthy cells (those that are round and translucent with no visible blemishes) were chosen for seal formation. A seal was formed between the pipette and the cell, and a brief pulse of suction was used to “break in” and establish the whole-cell configuration. The membrane potential was held at −100 mV before the voltage protocol began. Only cells with series resistance between 1.5-5 MΩ were retained for analysis. The voltage protocol was as follows: Cells were held at −100 mV for 12 ms followed by a hyperpolarizing step to −105 mV for 12 ms to monitor the leak. Cells were then stepped back to −100 mV for 40 ms. Cells were then depolarized to −20 mV for 10 ms and then returned to −100 mV for 26 ms (The FIGURE).
Once the recording was started, the voltage protocol was run at 30 second intervals for 5 minutes to get a stable baseline. This is followed by 5 Hz stimulation of the same voltage protocol run until the end of experiment. […] The test compound is added for 5 minutes before washing out with normal Ringer's solution. Currents were recorded using PatchMaster software with Heka EPC10 (HEKA Electronics, Lambrecht, Germany). Only cells with inward current amplitudes at −20 mV between 400 pA and 4 nA were accepted. In addition, cells having leak currents greater than 10% of their current amplitudes were discarded.
(§4) The data was plotted using the Patchmaster software (HEKA Electronics, Lambrecht, Germany) and analyzed by plotting the minimum current during the voltage step to −20 mV (peak inward current) as a function of time. […]

NaV1.7 [2] = target: T1, NaV1.7; assay: Whole cell patch clamp, internal block of NaV1.7 current; format: cell-based; details: % inhibition at 1 μM test concentration, compound in internal solution, manual whole cell patch clamp
Protocol: as §1, §2, §3
Once the recording was started, the voltage protocol was run at 30 second intervals for 5 minutes to get a stable baseline. This was followed by four 30-second periods of 5 Hz stimulation of the same voltage protocol separated by 1 minute of rest which was then followed by 0.33 Hz stimulation after the last train. Currents were recorded using PatchMaster software with Heka EPC10 (HEKA Electronics, Lambrecht, Germany). Only cells with inward current amplitudes at −20 mV between 400 pA and 4 nA were accepted. In addition, cells having leak currents greater than 10% of their current amplitudes were discarded.
as §4

[3] = PAMPA membrane permeability assay; format: physicochemical; details: pH 7.4 buffer, GIT lipid, 4 hours incubation
Protocol: The PAMPA assay (pION, Inc., Woburn Mass.) was used to determine the ability of compounds of the invention to cross an artificial lipid membrane by passive diffusion. Test compounds were dissolved in DMSO (10 mM) and diluted 200-fold in buffer (pION Inc., pH 7.4) to provide 50 uM stock solutions. Buffer (150 μL) was added to a UV blank plate and stock solutions (150 μL) were transferred to a UV reference plate. The blank and reference spectrum were read using a spectrophotometer. Stock solutions (200 μL) were added to the donor plate of the PAMPA sandwich plate and an accept plate painted with GIT lipid (pION Inc, 5 μL) was placed on top. Buffer (200 μL) was added to the acceptor plate and the PAMPA sandwich plate was incubated for 4 hours. Aliquots (150 μL) from the acceptor plate were added to a UV plate and read as acceptor spectrum. Aliquots (150 μL) of the donor solutions were added to a UV analysis plate and read as donor spectrum. The permeability coefficient of test compounds was calculated using PAMPA Explorer™ software (version 3.5.0.4) based on the AUC of the reference plate, the donor plate, and the acceptor plate.
The PAMPA permeability results (10^−6 cm/s) of representative compounds are reported as “+” (<0.1 10^−6 cm/s), “++” (0.1-2.0 10^−6 cm/s), “+++” (2.0-10.010^−6 cm/s) or “++++” (>10.0 10^−6 cm/s).

T1 sequence (Q15858 whole entry): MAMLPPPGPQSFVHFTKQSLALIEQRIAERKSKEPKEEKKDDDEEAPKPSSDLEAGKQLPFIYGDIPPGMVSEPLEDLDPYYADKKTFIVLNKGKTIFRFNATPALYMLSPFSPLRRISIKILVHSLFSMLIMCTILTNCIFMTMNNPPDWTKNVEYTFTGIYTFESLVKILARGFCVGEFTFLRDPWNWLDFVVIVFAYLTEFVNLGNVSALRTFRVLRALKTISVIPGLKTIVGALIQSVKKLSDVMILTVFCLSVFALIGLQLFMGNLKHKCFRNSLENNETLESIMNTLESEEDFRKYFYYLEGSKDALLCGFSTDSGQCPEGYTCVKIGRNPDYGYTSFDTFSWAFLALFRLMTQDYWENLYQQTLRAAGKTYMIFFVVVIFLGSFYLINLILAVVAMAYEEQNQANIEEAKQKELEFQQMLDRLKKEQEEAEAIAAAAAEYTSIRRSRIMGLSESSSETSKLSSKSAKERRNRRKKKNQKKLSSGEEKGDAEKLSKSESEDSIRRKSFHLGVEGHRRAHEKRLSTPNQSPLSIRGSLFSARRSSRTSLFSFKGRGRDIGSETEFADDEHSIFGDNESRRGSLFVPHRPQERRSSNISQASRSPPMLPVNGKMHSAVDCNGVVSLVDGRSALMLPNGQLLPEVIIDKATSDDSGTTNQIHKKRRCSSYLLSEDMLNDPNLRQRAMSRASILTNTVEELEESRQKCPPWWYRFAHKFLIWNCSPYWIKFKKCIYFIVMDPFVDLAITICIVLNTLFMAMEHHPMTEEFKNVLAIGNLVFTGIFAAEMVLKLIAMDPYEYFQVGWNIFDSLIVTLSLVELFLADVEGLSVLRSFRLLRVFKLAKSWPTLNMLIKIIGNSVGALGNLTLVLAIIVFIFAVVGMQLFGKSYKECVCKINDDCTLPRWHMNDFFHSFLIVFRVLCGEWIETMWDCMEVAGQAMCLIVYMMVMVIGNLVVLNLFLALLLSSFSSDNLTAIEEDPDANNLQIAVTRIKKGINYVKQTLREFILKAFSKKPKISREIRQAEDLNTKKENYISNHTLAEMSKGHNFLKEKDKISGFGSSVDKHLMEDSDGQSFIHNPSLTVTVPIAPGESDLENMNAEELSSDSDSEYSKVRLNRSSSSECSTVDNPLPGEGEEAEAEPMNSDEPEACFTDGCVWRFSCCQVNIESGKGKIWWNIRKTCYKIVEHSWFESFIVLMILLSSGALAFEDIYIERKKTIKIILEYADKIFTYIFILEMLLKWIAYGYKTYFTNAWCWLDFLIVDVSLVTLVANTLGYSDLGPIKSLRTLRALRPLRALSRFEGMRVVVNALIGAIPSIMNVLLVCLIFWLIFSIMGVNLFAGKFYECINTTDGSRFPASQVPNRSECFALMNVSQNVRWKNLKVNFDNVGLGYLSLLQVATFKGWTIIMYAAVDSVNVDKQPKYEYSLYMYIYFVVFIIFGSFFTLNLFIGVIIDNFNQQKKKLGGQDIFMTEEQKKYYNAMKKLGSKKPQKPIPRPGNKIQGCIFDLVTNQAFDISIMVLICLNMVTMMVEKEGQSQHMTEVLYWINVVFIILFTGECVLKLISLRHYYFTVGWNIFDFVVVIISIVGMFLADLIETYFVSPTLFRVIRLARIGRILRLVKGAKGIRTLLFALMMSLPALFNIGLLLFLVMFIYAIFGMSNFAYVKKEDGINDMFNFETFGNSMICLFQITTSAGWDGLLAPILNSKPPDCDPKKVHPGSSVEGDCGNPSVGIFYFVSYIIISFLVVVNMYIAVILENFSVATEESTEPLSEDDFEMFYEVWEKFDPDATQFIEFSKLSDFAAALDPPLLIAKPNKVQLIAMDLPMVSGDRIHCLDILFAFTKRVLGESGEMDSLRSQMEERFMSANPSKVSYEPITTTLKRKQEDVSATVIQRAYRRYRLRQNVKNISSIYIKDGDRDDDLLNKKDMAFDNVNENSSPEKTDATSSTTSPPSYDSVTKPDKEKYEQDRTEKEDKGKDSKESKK

Structure (SMILES): COC(=O)c1cccc(C)c1NC(=O)C[N+]1(Cc2ccccc2)CCCCCC1 [Compound 1A, 1-benzyl-1-(2-((2-(methoxycarbonyl)-6-methylphenyl)amino)-2-oxoethyl)azepan-1-ium Bromide]
inhibition at 3 µM (NaV1.7 [1]): < 40%

Structure (SMILES): CCNC(=O)C1CCC[N+](CC)(CC(=O)Nc2c(C)cccc2C(=O)OC)C1.O=C[O-] (stereo not shown) [Compound 49]
NaV1.7 Intracellular Inhibition (NaV1.7 [2]): + (<30%)
PAMPA (10^−6 cm/s) [3]: + (<0.1 10^−6 cm/s)

Structure (SMILES): CNC(=O)C[N+]1(CC(=O)Nc2c(C)cccc2C(=O)OC)CCCC(c2ccccc2)C1 (stereo not shown) [Compound 59A, 1-(2-((2-(methoxycarbonyl)-6-methylphenyl)amino)-2-oxoethyl)-1-(2-(methylamino)-2-oxoethyl)-3-phenylpiperidin-1-ium Bromide]
inhibition at 10 µM (NaV1.7 [1]): < 40%

Structure (SMILES): COC(=O)c1cccc(C)c1NC(=O)C[N+]1(CC(N)=O)CCCC(c2ccccc2)C1 (stereo not shown) [Compound 61A]
inhibition at 100 µM (NaV1.7 [1]): 40 to 70%

Structure (SMILES): CC[N+]1(CC(=O)Nc2c(C)cccc2C(=O)OC)CCCC(c2ccccc2)C1 (stereo not shown) [Compound 65A]
inhibition at 10 µM (NaV1.7 [1]): 40 to 70%

Structure (SMILES): COC(=O)c1cccc(C)c1NC(=O)C[n+]1cccc(-c2ccccc2)c1 [Compound 66A, 1-(2-((2-(methoxycarbonyl)-6-methylphenyl)amino)-2-oxoethyl)-3-phenylpyridin-1-ium Bromide]
inhibition at 30 µM (NaV1.7 [1]): 40 to 70%

Further lines, results first:

inhibition at 1 µM (NaV1.7 [1]): < 40%
Structure (SMILES): CCOC(=O)c1cccc(C)c1NC(=O)C[N+]1(Cc2ccccc2)CCCCCC1 [Compound 2A]

inhibition at 100 µM (NaV1.7 [1]): 40 to 70%
Structure (SMILES): COC(=O)c1cccc(C)c1NC(=O)C[N+]1(Cc2ccccc2)CCCCC1 [Compound 3A]

inhibition at 3 µM (NaV1.7 [1]): < 40%
Structure (SMILES): CCOC(=O)c1cccc(C)c1NC(=O)C[N+]1(Cc2ccccc2)CCCCC1 [Compound 4A]

inhibition at 10 µM (NaV1.7 [1]): < 40%
Structure (SMILES): CCOC(=O)c1cccc(C)c1NC(=O)C[N+]1(Cc2ccccc2)CCCC1 [Compound 9A]

inhibition at 1 µM (NaV1.7 [1]): 40 to 70%
Structure (SMILES): CCOC(=O)c1cccc(C)c1NC(=O)C[N+]1(Cc2ccccc2)CCCCCCC1 [Compound 10A]

inhibition at 30 µM (NaV1.7 [1]): 40 to 70%
Structure (SMILES): CCOC(=O)C1CCC[N+](CC(=O)Nc2c(C)cccc2C(=O)OC)(Cc2ccccc2)C1 (stereo not shown) [Compound 16A]

inhibition at 10 µM (NaV1.7 [1]): < 40%
Structure (SMILES): CCOC(=O)c1cccc(C)c1NC(=O)C[n+]1cccc(-c2ccccc2)c1 [Compound 67A]

NaV1.7 Intracellular Inhibition (NaV1.7 [2]): ++ (70-30%)
PAMPA (10^−6 cm/s) [3]: + (<0.1 10^−6 cm/s)
Structure (SMILES): CCOC(=O)c1cccc(C)c1NC(=O)C[n+]1cccn1C1CCCCC1.[Br-] [Compound 70]
